Tests used:
[1] = test system: lung cancer cells A549; test: Amount of secreted EVs by the ExoScreen method; assay type: cell-based, human; settings: A549 transformants, CMs and EV fractions, compared with transformants (NC)
Experimental: (§1) EV detection was performed using an AlphaLISA reagent (Perkin Elmer) composed of AlphaScreen streptavidin-coated donor beads (6760002), AlphaLISA unconjugated acceptor beads (6062011), and an AlphaLISA universal buffer (AL001F), a 96-well half-area white plate (6005560, Perkin Elmer), and a detection device EnSpire Alpha 2300 Mutilabel plate reader (Perkin Elmer). Specifically, the EV detection was performed as follows. Each well of the plate was filled with 5 μL of EVs or 10 μL of CM (cell culture supernatant), 10 μL of a 5 nmol/L biotinylated antibody solution prepared using the above-described buffer, and 10 μL of 50 µg/mL AlphaLISA acceptor bead-conjugated antibody. […] Next, luminescence in the wells of the plate was measured using the detection device with the excitation wavelength set to 680 nm and the emission detection wavelength set to 615 nm. […]
(§2) In a 6-well plate, 2 mL of the cancer cell suspension was seeded at 1.0×10^5 cells/well and incubated for 24 hours. […] 48 hours after the replacement, total RNA was extracted, and the expression of the gene of interest was measured by qPCR.
(§3) Colorectal cancer cells HCT116 and lung cancer cells A549 were each transfected with miR-891b. […] Then, according to the ExoScreen method described above, the amounts of the secreted EVs were measured by measuring the signal intensities. […]

[2] = test system: colorectal cancer cells HCT116; test: Amount of secreted EVs by the ExoScreen method; assay type: cell-based, human; settings: HCT116 transformants, CMs and EV fractions, compared with transformants (NC)
Experimental: as §1, §2, §3

[3] = test system: 3′ UTR of the human PSAT1 mRNA; test: Dual-Luciferase reporter assay with PSAT1 3′ UTR in HEK293 cells; assay type: cell-based; settings: 48 hours after transfection
Experimental: Thus, the effect of miR-891b was examined using the wild-type PSAT1 gene in which the above-described 7-base region in the 3′ UTR is the wild-type sequence (SEQ ID NO: 3: AAGTTGC) and a mutant-type PSAT1 gene in which the above-described 7-base region in the 3′ UTR is a mutated sequence (SEQ ID NO: 4: TTCAACG). Specifically, the following experiment was performed. The wild-type PSAT1 gene or the mutant-type PSAT1 gene was subcloned into a plasmid vector psiCHECK2, and human embryonic kidney cells (HEK293 cells) were transfected with this recombinant vector together with miR-891b or the negative control miRNA using Lipofectamine 3000. 48 hours after the transfection, the luciferase activity of the transformants was quantified using a plate reader according to the operating procedure of a Dual-Luciferase Reporter Assay System.
The results obtained are shown in (D) of FIG. 3.

[4] = test system: PSAT1; test: PSAT1 gene (qPCR) and protein (Western blotting) expression in transformants; assay type: cell-based, human; settings: HCT116 and A549 transformants
Experimental: In a 6-well plate, 2 mL of the cancer cell suspension was seeded at 1.0×10^5 cells/well and incubated for 24 hours. Thereafter, 10 nmol/L of the intended nucleic acid molecules were added thereto, and the cells were transfected with the nucleic acid molecules using a transfection reagent (product name: DharmaFECT Transfection Reagent 1). The nucleic acid molecules used were the above-described miRNA and the above-described siRNA. After the incubation for 24 hours, the medium was replaced with the above-described advanced RPMI 1640 medium or advanced DMEM medium containing the antibiotic-antimycotic agent and 2 mmol/L-glutamine (Gibco). 48 hours after the replacement, total RNA was extracted, and the expression of the gene of interest was measured by qPCR. […]
First, expression of the PSAT1 gene was detected in the above-described transformants (miR-891b) and the control transformants (NC) therefor. Then, assuming that the expression levels in the transformants (NC) were 1, the relative values of the expression levels in the respective transformants (miR-891b) were determined. […] Also, for the transformants (miR-891b) and the control transformants (NC), the PSAT1 protein expression was detected by Western blotting. As a control, β-actin was also detected. […]

[5] = test system: lung cancer cells A549; test: CD63 immunofluorescence / coimmunostaining (intracellular EV accumulation); assay type: cell-based, human; settings: A549 transformants
Experimental: (§4) Colorectal cancer cells HCT116 and lung cancer cells A549 were transfected with siRNA (siPSAT1) in the same manner as in the item (2) in Example A1, and EV biogenesis after PSAT1 silencing was examined. For the respective silenced transformants, CD63 and PSAT1 were examined by immunofluorescence.
(§5) Further, coimmunostaining of the EV marker CD63 and also an early endosome marker EEA1 or a late endosome marker Rab7 was conducted for the PSAT1-silenced transformants. As a result, no overlap was observed between EEA1 and CD63 in either the PSAT1-silenced transformants or the negative control transformants. […] On this account, the CD63 single-positive area was measured based on the intensity. […] This confirmed that EVs had accumulated in the cells.
(§6) Specifically, the test was performed in the following manner. Colorectal cancer cells HCT116 and lung cancer cells A549 were each seeded in a 6-well plate at 1.5×10^5 cells/well (Day 0), and incubated for 24 hours in a medium (DMEM with 10% FBS, 1×anti-anti medium). After the incubation (Day 1), the above-described medium was removed, and thereafter, a serine-deficient medium and an inhibitor solution were added to the wells. The inhibitor solution was prepared by dissolving NCT-503 in DMSO, and the concentration of the inhibitor per well was set to 2.5 μmol/L. Then, after another 48 hours of incubation (Day 3), the medium in the wells was collected and the cells in the wells were counted. As negative controls (NC), the test was performed in the same manner, except that DMSO was added instead of the inhibitor solution.
(§7) EVs accumulated in the cells were analyzed in the following manner. Specifically, the collected cells were immunostained, the CD63 single-positive area was measured based on the fluorescence intensity, and the fluorescence intensity measured in the area was divided by the number of nuclei to determine the amount of EVs accumulated in each cell. On the other hand, secreted EVs were collected from the collected medium and then subjected to the NTA. In the NTA, the amount of secreted EVs was determined as a relative value calculated assuming that the amount of the secreted EVs in the negative control was 1.

[6] = test system: colorectal cancer cells HCT116; test: as above; assay type: cell-based, human; settings: HCT116 transformants
Experimental: as §4, §5, §6, §7

Question: With “miR-891b: nucleic acid molecule miRNA, SEQ ID NO: 1: GCAACUUACCUGAGUCAUUGA (Product No. 4464066, Ambion) (listed as RNA, chemistry not given here)” as the substance, how does the “relative value of the amount of secreted EVs (ExoScreen method)” value [1] read?
Answer: significantly lower

Question: And the “relative value of the amount of secreted EVs (ExoScreen method)” value [2]?
Answer: significantly lower

Question: What about the “PSAT1 expression level (relative luciferase activity)” value ([3]; mutated sequence in miR-891b recognition region) of the same substance?
Answer: did not reduce

Question: What about the “PSAT1 expression level (relative luciferase activity)” value ([3]; wild-type PSAT1 3′ UTR sequence) of the same substance?
Answer: significantly reduced

Question: What about the PSAT1 protein expression ([4]; Western blotting, vs transformants (NC)) of the same substance?
Answer: reduced

Question: And the PSAT1 gene expression ([4]; relative to transformants (NC))?
Answer: reduced

Question: And the “CD63 (EV marker) in cytoplasm by immunofluorescence” value [5]?
Answer: accumulation of CD63

Question: And the “CD63 (EV marker) in cytoplasm by immunofluorescence” value [6]?
Answer: accumulation of CD63
